How the values were obtained:
[1] = test system: MV522 (human lung carcinoma cell line); assay: 2 hour exposure, [3H]-thymidine incorporation; assay type: cell-based
Protocol: (§1) To assess cytotoxic effects, various concentrations of illudins were added to cultures of MV522 (human lung carcinoma cell line) and 8392 (B-cell leukemia/lymphoma) cells for 48 hours, then cell growth/viability was determined by trypan blue exclusion. As an alternative to 48 hour continuous exposure studies, cells were plated in liquid culture in 96 well plates, exposed to various concentrations of illudins for 2 hours, pulsed with [^3H]-thymidine for one to two hours and harvested onto glass filters. The filter papers were added to vials containing scintillation fluid and residual radioactivity determined in a beta (scintillation) counter.

[2] = test system: MV522 lung carcinoma line; settings: for efficacy in MV522 xenograft (in words): summary of the in vivo table
Source text: Several analogs were chosen for in vivo studies. […] Drug therapy was started 10 days after inoculation on a daily basis via IP route for 5 consecutive days. The animals were monitored for 3 weeks after start of therapy.
BALB/c nu/nu 4-week old female mice weighing 18-22 g were obtained from Simonsen, Inc. (Gilroy, Calif.) and maintained in the athymic mouse colony of the University of California (San Diego, Calif.) under pathogen free conditions using HEPA filter hoods. Animals were provided with sterilized food and water ad libitum in groups of 5 in plastic cages vented with polyester fiber filter covers. Clean, sterilized gowns, glove, face masks, and shoe and hood covers were worn by all personnel handling the animals. All studies were conducted in accordance with guidelines of the NIH “Guide for Care and Use of Animals” and approved by the University Institutional Animal Care and Use Committee (Protocol 3-006-2)
The MV522 lung carcinoma line used for xenograft studies was derived as described by Kelner et al. (Anticancer Res., 15: 867-872; 873-878 (1995)) and maintained in antibiotic-free RPMI 1640 (Mediatech, Herndon, Va.) supplemented with 10% fetal bovine serum and 2 mM glutamine in 37° C. humidified carbon dioxide incubator.
Each animal was earmarked and followed individually throughout the experiments. Mice received s.c. injections of the parental cell line MV522 using 10 million cells/inoculation over the shoulder. Ten days after s.c. implantation of the MV522 cells, when s.c. tumors were approximately 3×3 mm in size, animals received the desired drug and dosage. The effect of the drug on life span was calculated from median survival.
Although MV522 cells kill mice by metastases, primary s.c. tumor growth over the shoulder was monitored starting on the first day of treatment and at weekly intervals thereafter. Tumor size was measured in two perpendicular diameters. Tumor weights were estimated according to the formula w=(width)^2×length/2). Relative weights (RW) were calculated to standardized variability in tumor size among test groups at initiation of treatment using the formula RW=Wt/wi, where Wi is the tumor weight for a given animal at beginning of drug treatment and Wt is tumor weight at a subsequent time. Animals were necropsied, and organs were examined for evidence of metastases.
Comparison of survival curves between groups of animals was by the method of Kaplan and Meir. For comparison of relative tumor weights between multiple groups of animals, ordinary ANOVA followed by Turkey-Kramer multiple Comparison post ANOVA analysis was preformed (Kelner et al. (Aniticancer Res., 15: 867-872; 873-878 (1995)). Probability values (p) less than 0.05 were considered statistically significant.

[3] = test system: 8392 (B-cell leukemia/lymphoma) cells; assay: 2 hour exposure, [3H]-thymidine incorporation; assay type: cell-based
Protocol: as §1

[4] = test system: 8392 (B-cell leukemia/lymphoma) cells; assay: 48 hour continuous exposure, trypan blue exclusion; assay type: cell-based; settings: 48 hour exposure
Protocol: as §1

[5] = test system: MV522 (human lung carcinoma cell line); assay: 48 hour continuous exposure, trypan blue exclusion; assay type: cell-based; settings: 48 hour exposure
Protocol: as §1

[6] = test system: solid tumor systems; settings: cited from earlier work
[7] = test system: Dunning leukemia; settings: rats with Dunning leukemia; cited from earlier work

SMILES | IC50 [1] [µM] | IC50 [3] [µM] | IC50 [5] [µM] | further results
CC1=C(CC2CC(C=O)CC(C=O)C2O)C2=C(C)C3(CC3)C(C)(O)C(=O)C2=C1 (mixture of isomers) [Compound 13] | 5.12 ± 0.65 | – | – | –
CCOCC1=C(C)C=C2C(=O)C(C)(O)C3(CC3)C(C)=C21 (stereo not shown) [Compound 16] | – | – | – | efficacy in MV522 xenograft (in words) [2]: effective
CC1=C(CSCC(O)CO)C2=C(C)C3(CC3)C(C)(O)C(=O)C2=C1 (stereo not shown) [Compound 32] | 0.595 ± 0.185 | > 50 | – | efficacy in MV522 xenograft (in words) [2]: effective
CC1=C(CCCO)C2=C(C)C3(CC3)C(C)(O)C(=O)C2=C1 (stereo not shown) [Compound 9] | – | 47.1 ± 11 | – | IC50 [4]: 15.1 ± 2.2 µM
COC(C)(C)OCC1=C(C)C=C2C(=O)C(C)(O)C3(CC3)C(C)=C21 (stereo not shown) [Compound 21] | – | 34.3 ± 9.4 | 0.93 ± 0.25 | efficacy in MV522 xenograft (in words) [2]: more efficacious than HMAF
CO[C@@]12[C@H](COC(N)=O)C3=C(C(=O)C(C)=C(N)C3=O)N1C[C@@H]1N[C@@H]12 [Mitomycin C, reference compound] | – | – | – | day before which all animals succumbed ([2]; mouse, in vivo): < 31 days
CC1=C2C(=CC3(C)COCOC23)C(=O)C(C)(O)C12CC2 (stereo not shown) [Compound 14] | 0.115 ± 0.03 | 9.65 ± 1.2 | – | –
CC1=C(CCC=O)C2=C(C)C3(CC3)C(C)(O)C(=O)C2=C1 (stereo not shown) [Compound 10] | – | 29.4 ± 1.6 | – | IC50 [4]: 14.5 ± 1.65 µM
CC1=C(CSCc2ccccc2)C2=C(C)C3(CC3)C(C)(O)C(=O)C2=C1 (stereo not shown) [Compound 24] | – | 12.8 ± 2.14 | – | –
COC(=O)CSCC1=C(C)C=C2C(=O)C(C)(O)C3(CC3)C(C)=C21 (stereo not shown) [Compound 25] | – | > 25 | – | –
CC(=O)OCOCC1=C(C)C=C2C(=O)C(C)(O)C3(CC3)C(C)=C21 (stereo not shown) [Compound 8] | 0.87 ± 0.09 | – | 0.63 ± 0.08 | IC50 [4]: 15.1 ± 2.2 µM
CC1=C(CSc2ccc(O)cc2)C2=C(C)C3(CC3)C(C)(O)C(=O)C2=C1 (stereo not shown) [Compound 23] | 2.92 ± 1.14 | 138 ± 13 | 2.75 ± 0.51 | –
CC1=C2C(=CC(C)(C)[C@@H]2O)C(=O)[C@](C)(O)C12CC2 [Illudin M] | – | – | – | therapeutic index [6]: low; life span [7]: significantly increased
CC1=C(COCCO)C2=C(C)C3(CC3)C(C)(O)C(=O)C2=C1 (stereo not shown) [Compound 22] | – | 31.7 ± 1.4 | 0.68 ± 0.18 | –
CC1=C2C=CC=C2C(=O)C2(OCCO2)C12CC2 [Compound 33] | > 4 | 29.9 ± 3.3 | 4.6 ± 0.2 | efficacy in MV522 xenograft (in words) [2]: effective
CC1=C(C=O)C2=C(C)C3(CC3)C(C)(O)C(=O)C2=C1 (stereo not shown) [Compound 11] | 4.9 ± 0.9 | > 100 | – | IC50 [4]: 40.4 ± 6.7 µM

— US7713939B2, “Illudin analogs useful as antitumor agents” (priority 1996, dated 2010)
